In paper PMC6904209 (Methods in enzymology, 2017):
Where two headings read alike, the source gives them in different places.

Tests used:
[1] = molecular target: T1, Human recombinant SCP-2 (Homo sapiens, UniProt P22307); assay: NBDS displacement assay; assay type: binding; settings: for Max % Displacement: displacement of SCP-2 (500 nM)-bound NBDS (500 nM), 24°C, 10 mM phosphate buffer pH 7.4, n=4
T1 sequence (P22307 1-143 isoform P22307-2): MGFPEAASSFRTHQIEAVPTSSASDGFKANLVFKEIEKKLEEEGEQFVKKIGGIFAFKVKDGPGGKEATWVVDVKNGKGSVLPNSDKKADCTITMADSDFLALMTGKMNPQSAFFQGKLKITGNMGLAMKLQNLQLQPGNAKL

[2] = molecular target: T1, Human recombinant SCP-2; assay: Reverse and forward titrations of NBDS with SCP-2; assay type: binding; settings: forward titration, SCP-2 500 nM, NBDS 0–1.8 μM
[3] = Ki = (Kd,NBDS × EC50)/[NBDS]total, NBDS 0.5 μM
[4] = Ki, Ki = (Kd,NBDS × EC50)/[NBDS]total, NBDS 0.5 μM

| Structure (SMILES) | Ki [1, 3] [µM] | Max % Displacement [1] [%] | other results |
| --- | --- | --- | --- |
| CCCCC/C=C\C/C=C\C/C=C\C/C=C\CCCC(=O)NCCF [Compound 5, arachidonoyl-2’-fluoroethylamide] | 2.78 ± 0.21 | 64.4 ± 2.2 | – |
| CCCCC/C=C\C/C=C\C/C=C\C/C=C\CCCC(=O)OC(CO)CO [Compound 2, 2-arachidonoylglycerol] | – | 55.1 ± 1.0 | EC50 [1]: 0.84 ± 0.04 µM; Ki [1, 4]: 0.37 ± 0.02 µM |
| CCCCC/C=C\C/C=C\C/C=C\C/C=C\CCCC(=O)Nc1ccc(O)cc1 [Compound 10, N-arachidonoyl-p-aminophenol] | 1.41 ± 0.03 | 89.2 ± 0.8 | Max % Displacement ([1]; listed as AM404): 89% |
| CCCCC/C=C\C/C=C\C/C=C\C/C=C\CCCC(=O)NC(CO)CO [Compound 4, N-arachidonoyl serinol] | 2.95 ± 0.12 | 69.2 ± 1.7 | fold reduction in potency compared to 2 ([1]; NBDS displacement, versus 2-AG (2)): 8 fold |
| CC/C=C\C/C=C\C/C=C\C/C=C\C/C=C\C/C=C\CCC(=O)NCCO [Compound 13, docosahexaenoyl ethanolamide] | 1.91 ± 0.04 | 73.9 ± 1.3 | – |
| CCCCCCC(CCCCCCCCCCC(=O)O)N(C)c1ccc([N+](=O)[O-])c2nonc12 (stereo not shown) [NBDS, 12-N-methyl-(7-nitrobenz-2-oxa-1,3-diazo)aminostearic acid] | – | – | Bmax [2]: 0.89 ± 0.04 binding sites per molecule of SCP-2 |
| CCCCC/C=C\C/C=C\C/C=C\C/C=C\CCCC(=O)NCCc1ccc(O)c(O)c1 [Compound 9, N-arachidonoyl dopamine] | 1.12 ± 0.02 | 94.9 ± 0.1 | – |
| CCCCC/C=C\C/C=C\C/C=C\C/C=C\CCCC(=O)OCCN [Compound 6, O-arachidonoylethanolamine] | 1.6 ± 0.02 | 94.7 ± 1.6 | – |
| CCCCC/C=C\C/C=C\C/C=C\C/C=C\CCCC(=O)NCC(=O)O [Compound 7, N-arachidonoyl glycine] | 1.22 ± 0.03 | 82.0 ± 0.8 | – |
| CCCCC/C=C\C/C=C\C/C=C\C/C=C\CCCC(=O)NCCc1c[nH]c2ccc(O)cc12 [Compound 8, N-arachidonoyl serotonin] | 1.46 ± 0.02 | 84.8 ± 0.8 | – |
| CCCCCCCC/C=C\CCCCCCCC(N)=O [Compound 12, Oleamide] | – | 68.3 ± 1.7 | EC50 [1]: 13.1 ± 2.3 µM; Ki [1]: 5.8 ± 1 µM |
| CC(=O)Nc1ccc(Nc2nc(-c3ccc(Cl)c(Cl)c3)cs2)cc1 [Compound 14] | 1 ± 0.1 | 96.6 ± 0.7 | – |
| CCCCC/C=C\C/C=C\C/C=C\C/C=C\CCCC(N)=O [Compound 11, Arachidonoyl amide] | 1.8 ± 0.1 | 71.1 ± 1.3 | – |
| CCCCC/C=C\C/C=C\C/C=C\C/C=C\CCCC(=O)OCC(O)CO (stereo not shown) [Compound 3, 1-arachidonoyl glycerol] | – | 57.7 ± 0.7 | EC50 [1]: 1.87 ± 0.05 µM; Ki [1, 4]: 0.82 ± 0.02 µM |
| CCCCC/C=C\C/C=C\C/C=C\C/C=C\CCCC(=O)NCCO [Compound 1, N-arachidonoylethanolamine] | 0.68 ± 0.05 | 59.3 ± 1.2 | – |
